# Results from US7446091B2, “Methods and preparations for curing clinically ill patients” (Novo Nordisk A/S, priority 2000, dated 2008).
# Test system: mechanically ventilated, adult patients admitted to the intensive care unit (ICU)
# Assay: Example 2: prospective, randomized, controlled study, morbidity analysis
# Type: in vivo, human
# Details: for Patients with critical illness polyneuropathy - total no.: EMG-screened patients; for Number of transfusions per patient (median): admission day not taken into account
# Text: All mechanically ventilated, adult patients admitted to the intensive care unit (ICU) were eligible for inclusion.
# At baseline, demographic, diagnostic and therapeutic information as well as information necessary to determine severity of illness and utilization of ICU resources were obtained from each patient (Table 1). These included APACHE-II (Acute Physiology and Chronic Health Evaluation) score with higher values indicating more severe illness (see Knaus) and simplified Therapeutic Intervention Scoring System (TISS-28) with higher values indicating a higher number of therapeutic interventions (see Reis Miranda & Keene). APACHE II and TISS scores were calculated daily from ICU admission to discharge or death.
# A blood sample was taken upon ICU admission and daily at 06:00 h until discharge from ICU or death. On-admission and daily morning, whole blood glucose level as well as daily maximal and minimal glycemia were analysed. Analyses on the 06:00 h sample also included clinical chemistry, hematology and markers of inflammation.
# Blood cultures were taken whenever continously monitored central body temperature acutely rose above 38.5° C. Results from all blood cultures were interpreted by the same blinded investigator. An episode of bacteremia, fungemia or mycobacteremia was defined by the first positive blood culture in a series. To identify a blood stream infection with coagulase-negative staphylocci, identical strains (compared by antibiogram) of microorganisms in two or more positive blood cultures were required (see Weinstein 1997 and Weinstein 1998).
# In patients treated in ICU for more than one week, a weekly electromyography (EMG) was performed to screen for Critical Illness Polyneuropathy. EMGs were interpreted by the same electrophysiologist who was blinded for randomization. In case of ICU death, a post-mortem examination was performed to confirm the presumed cause of death.
# The primary outcome measure was death from all causes during intensive care. Secondary outcome measures were in-hospital mortality, incidence of prolonged intensive care dependency and need for ICU re-admission, need for vital organ system support comprising mechanical ventilatory support, renal replacement therapy (continuous or intermittent hemofiltration or dialysis), inotropic or vasopressor support, incidence of critical illness polyneuropathy, the degree of inflammation, incidence of blood stream infections and use of antibiotics, transfusion requirements and incidence of hyperbilirubinemia. Furthermore, use of intensive care resources was analysed by cumulative TISS scores. In order to accurately and objectively assess duration of ICU stay, which is often influenced by non-patient related factors such as bed availability on regular wards, patients were defined ‘dischargable from ICU’ when they were no longer in need of vital organ system support and received at least ⅔rd of the caloric need through the normal enteral route or earlier when actually sent to a ward.
# Baseline and outcome variables were compared using Student's t-test, Chi-square test and Mann-Whitney-U test, as appropriate. Death odds ratios were calculated using multivariate logistic regression analysis. The effect on time of in-hospital death was assessed by Kaplan-Meier analysis and logrank (Mantel-Cox) significance testing. Patients discharged from the hospital were considered as survivors. Data are presented as percentages, means ±SD or medians (25th-75th percentile) unless indicated otherwise.
# [1] = IIS, ICU stay >5 days (N = 451)
# [2] = IIS, ICU stay ≤5 days (N = 1097)
# [3] = RIS, ICU stay >5 days (N = 451)
# [4] = RIS, ICU stay ≤5 days (N = 1097)
substance,measurement,setting,value
insulin,>3 days C-reactive protein level above 150 mg/L (%),IIS,(15%)
same,>3 days C-reactive protein level above 150 mg/L - total no.,IIS,119
same,>3 days central body temperature ≤36° C. or […]38° C. (%),IIS,(21%)
same,>3 days central body temperature ≤36° C. or […]38° C. - total no.,IIS,164
same,>3 days white blood cell count ≤4000/μL or […]12000/μL (%),IIS,(16%)
same,>3 days white blood cell count ≤4000/μL or […]12000/μL - total no.,IIS,121
same,Lowest level of hemoglobin (g/dL) when transfused (median),IIS,8.3 g/dL
same,Number of patients requiring red cell transfusion (%),IIS,(29%)
same,Number of patients requiring red cell transfusion - total no,IIS,219
same,Patients needing dialysis or CVVH (%),IIS,(4.8%)
same,Patients needing dialysis or CVVH - total no,IIS,37
same,Patients on inotropic/vasopressor treatment (%),IIS,(75%)
same,Patients on inotropic/vasopressor treatment - total no.,IIS,574
same,Patients requiring >7 days intensive care (%),IIS,(20.5%)
same,Patients requiring >7 days intensive care - total no,IIS,157
same,Patients requiring >7 days ventilatory support (%),IIS,(16.9%)
same,Patients requiring >7 days ventilatory support - total no.,IIS,125
same,Patients requiring >14 days intensive care (%),IIS,(11.4%)
same,Patients requiring >14 days intensive care - total no,IIS,87
same,Patients requiring >14 days ventilatory support (%),IIS,(7.7%)
same,Patients requiring >14 days ventilatory support - total no.,IIS,57
same,Patients requiring >21 days intensive care (%),IIS,(6.5%)
same,Patients requiring >21 days intensive care - total no,IIS,50
same,Patients requiring >21 days ventilatory support (%),IIS,(5.0%)
same,Patients requiring >21 days ventilatory support - total no.,IIS,37
same,Patients treated with antibiotics for >10 days (%),IIS,(11.2%)
same,Patients treated with antibiotics for >10 days - total no.,IIS,86
same,Patients with an ICU stay of >5 days,IIS,27%
same,Patients with blood stream infections during intensive care (%),IIS,(4.2%)
same,Patients with blood stream infections during intensive care - total no,IIS,32
same,Patients with critical illness polyneuropathy (% of EMG-screened),IIS,(29%)
same,Patients with hyperbilirubinemia (peak bilirubin >2 mg/dL) (%),IIS,(22%)
same,Patients with hyperbilirubinemia (peak bilirubin >2 mg/dL) - total no.,IIS,171
same,Peak plasma creatinine >2.5 mg/dL (%),IIS,(9.0%)
same,Peak plasma creatinine >2.5 mg/dL - total no.,IIS,69
same,Peak plasma urea concentration >150 mg/dL (%),IIS,(7.7%)
same,Peak plasma urea concentration >150 mg/dL - total no.,IIS,59
same,Repetitive (>2) positive EMGs (% of EMG screened),IIS,(7%)
same,Repetitive (>2) positive EMGs - total no,IIS,11
same,">3 days C-reactive protein level above 150 mg/L, NNT",IIS vs RIS,17
same,">3 days C-reactive protein level above 150 mg/L, RRR (%)",IIS vs RIS,29%
same,">3 days abnormal central body temperature, NNT",IIS vs RIS,20
same,">3 days abnormal central body temperature, RRR (%)",IIS vs RIS,19%
same,">3 days abnormal white blood cell count, NNT",IIS vs RIS,20
same,">3 days abnormal white blood cell count, RRR (%)",IIS vs RIS,24%
same,"In-hospital stay, difference between the two study groups",IIS vs RIS,not detectably different
same,"Patients needing dialysis or CVVH, NNT",IIS vs RIS,29
same,"Patients needing dialysis or CVVH, RRR (%)",IIS vs RIS,42%
same,"Patients on inotropic/vasopressor treatment, RRR (%)",IIS vs RIS,=
same,"Patients requiring >7 days intensive care, NNT",IIS vs RIS,17
same,"Patients requiring >7 days intensive care, RRR (%)",IIS vs RIS,22%
same,"Patients requiring >7 days ventilatory support, NNT",IIS vs RIS,16
same,"Patients requiring >7 days ventilatory support, RRR (%)",IIS vs RIS,27%
same,"Patients requiring >14 days intensive care, NNT",IIS vs RIS,23
same,"Patients requiring >14 days intensive care, RRR (%)",IIS vs RIS,27%
same,"Patients requiring >14 days ventilatory support, NNT",IIS vs RIS,22
same,"Patients requiring >14 days ventilatory support, RRR (%)",IIS vs RIS,37%
same,"Patients requiring >21 days intensive care, NNT",IIS vs RIS,33
same,"Patients requiring >21 days intensive care, RRR (%)",IIS vs RIS,32%
same,"Patients requiring >21 days ventilatory support, NNT",IIS vs RIS,31
same,"Patients requiring >21 days ventilatory support, RRR (%)",IIS vs RIS,39%
same,"Patients treated with antibiotics for >10 days, NNT",IIS vs RIS,17
same,"Patients treated with antibiotics for >10 days, RRR (%)",IIS vs RIS,35%
same,"Patients with blood stream infections, NNT",IIS vs RIS,28
same,"Patients with blood stream infections, RRR (%)",IIS vs RIS,46%
same,"Patients with critical illness polyneuropathy, RRR (%)",IIS vs RIS,44%
same,"Patients with hyperbilirubinemia, NNT",IIS vs RIS,20
same,"Patients with hyperbilirubinemia, RRR (%)",IIS vs RIS,19%
same,"Peak plasma creatinine >2.5 mg/dL, NNT",IIS vs RIS,31
same,"Peak plasma creatinine >2.5 mg/dL, RRR (%)",IIS vs RIS,26%
same,"Peak plasma urea concentration >150 mg/dL, NNT",IIS vs RIS,29
same,"Peak plasma urea concentration >150 mg/dL, RRR (%)",IIS vs RIS,31%
same,"Repetitive (>2) positive EMGs, NNT",IIS vs RIS,8
same,"Repetitive (>2) positive EMGs, RRR (%)",IIS vs RIS,63%
same,"Patients with critical illness polyneuropathy, NNT","IIS vs RIS, among screened patients",4
same,Reduction in median cumulative TISS score,"IIS vs RIS, long-stay patients",20%
same,Patients with critical illness polyneuropathy - total no.,IIS,47
same,Cumulative TISS (median),[1],431
same,Days on ICU (median),[1],12 days
same,Days on mechanical ventilatory support (median),[1],10 days
same,Cumulative TISS (median),[2],85
same,Days on ICU (median),[2],2 days
same,Days on mechanical ventilatory support (median),[2],1 days
same,Number of transfusions per patient (median),IIS,1
same,>3 days C-reactive protein level above 150 mg/L (%),RIS,(21%)
same,>3 days C-reactive protein level above 150 mg/L - total no.,RIS,162
same,>3 days central body temperature ≤36° C. or […]38° C. (%),RIS,(26%)
same,>3 days central body temperature ≤36° C. or […]38° C. - total no.,RIS,206
same,>3 days white blood cell count ≤4000/μL or […]12000/μL (%),RIS,(21%)
same,>3 days white blood cell count ≤4000/μL or […]12000/μL - total no.,RIS,166
same,Lowest level of hemoglobin (g/dL) when transfused (median),RIS,8.1 g/dL
same,Number of patients requiring red cell transfusion (%),RIS,(31%)
same,Number of patients requiring red cell transfusion - total no,RIS,243
same,Patients needing dialysis or CVVH (%),RIS,(8.2%)
same,Patients needing dialysis or CVVH - total no,RIS,64
same,Patients on inotropic/vasopressor treatment (%),RIS,(75%)
same,Patients on inotropic/vasopressor treatment - total no.,RIS,586
same,Patients requiring >7 days intensive care (%),RIS,(26.3%)
same,Patients requiring >7 days intensive care - total no,RIS,206
same,Patients requiring >7 days ventilatory support (%),RIS,(23.2%)
same,Patients requiring >7 days ventilatory support - total no.,RIS,175
same,Patients requiring >14 days intensive care (%),RIS,(15.7%)
same,Patients requiring >14 days intensive care - total no,RIS,123
same,Patients requiring >14 days ventilatory support (%),RIS,(12.3%)
same,Patients requiring >14 days ventilatory support - total no.,RIS,93
same,Patients requiring >21 days intensive care (%),RIS,(9.5%)
same,Patients requiring >21 days intensive care - total no,RIS,74
same,Patients requiring >21 days ventilatory support (%),RIS,(8.2%)
same,Patients requiring >21 days ventilatory support - total no.,RIS,62
same,Patients treated with antibiotics for >10 days (%),RIS,(17.1%)
same,Patients treated with antibiotics for >10 days - total no.,RIS,134
same,Patients with an ICU stay of >5 days,RIS,31%
same,Patients with blood stream infections during intensive care - total no,RIS,61
same,Patients with critical illness polyneuropathy (% of EMG-screened),RIS,(52%)
same,Patients with hyperbilirubinemia (peak bilirubin >2 mg/dL) (%),RIS,(27%)
same,Patients with hyperbilirubinemia (peak bilirubin >2 mg/dL) - total no.,RIS,209
same,Peak plasma creatinine >2.5 mg/dL (%),RIS,(12.2%)
same,Peak plasma creatinine >2.5 mg/dL - total no.,RIS,96
same,Peak plasma urea concentration >150 mg/dL (%),RIS,(11.2%)
same,Peak plasma urea concentration >150 mg/dL - total no.,RIS,88
same,Repetitive (>2) positive EMGs (% of EMG screened),RIS,(19%)
same,Repetitive (>2) positive EMGs - total no,RIS,39
same,Patients with critical illness polyneuropathy - total no.,RIS,110
same,Cumulative TISS (median),[3],536
same,Days on ICU (median),[3],15 days
same,Days on mechanical ventilatory support (median),[3],12 days
same,Cumulative TISS (median),[4],84
same,Days on ICU (median),[4],2 days
same,Days on mechanical ventilatory support (median),[4],1 days
same,Number of transfusions per patient (median),RIS,2
same,"TISS score on the last day of study (median, IQR)",both study groups (IIS and RIS),30 (26-38)
same,ICU re-admission rate,similar in both groups (IIS and RIS),2.1%
